Results reported in ChEMBL document CHEMBL1799972, “Grandilodines A-C, biologically active indole alkaloids from Kopsia grandifolia” (J Nat Prod, 2011).

Legend:
KB/VJ300 = assay: Reversal of multidrug-resistance in vincristine-resistant human KB/VJ300 cells in presence of 0.1 ug/ml vincristine; assay type: functional, cell-based
KB = assay: Cytotoxicity against vincristine-sensitive human KB cells in presence of 0.1 ug/ml vincristine; assay type: cell-based
[1] = Cytotoxicity in vincristine-resistant human KB/VJ300 cells in presence of 0.1 ug/ml vincristine; assay type: cell-based

Compound | IC50 (KB/VJ300) [µg/mL] | IC50 (KB) [µg/mL] | IC50 [1] [µg/mL]
COC(=O)[C@@H]1C[C@]23CCCN2CC[C@]2(C(=O)OC)c4ccccc4N(C(=O)OC)[C@]12CC3 [GRANDILODINE A] | 4.35 | – | –
COC(=O)N1c2ccccc2[C@]23CCN4C(=O)C=C[C@]45CC[C@]12[C@@H](C5)C(=O)O3 [GRANDILODINE C] | 4.11 | – | –
COC(=O)N1c2ccccc2[C@]23CCN4CC=C[C@]45CC[C@]12[C@@H](C5)C(=O)O3 [LAPIDILECTINE B] | 0.39 | – | –
CC[C@]1(O)C[C@H]2CN(CCc3c([nH]c4ccccc34)[C@@](C(=O)OC)(c3cc4c(cc3OC)N(C=O)[C@H]3[C@@](O)(C(=O)OC)[C@H](OC(C)=O)[C@]5(CC)C=CCN6CC[C@]43[C@@H]65)C2)C1 [VINCRISTINE] | – | > 25 | > 25
